Results reported in ChEMBL document CHEMBL1132534, “Predicting relative binding free energies of tacrine-huperzine A hybrids as inhibitors of acetylcholinesterase” (J Med Chem, 1999).

Molecular target: Acetylcholinesterase (Homo sapiens) (UniProt P22303)
Assay: Inhibitory activity against acetylcholinesterase compared to the IC50 of (-)-9M-HTH

Sequence of Acetylcholinesterase (Homo sapiens) (P22303 whole entry): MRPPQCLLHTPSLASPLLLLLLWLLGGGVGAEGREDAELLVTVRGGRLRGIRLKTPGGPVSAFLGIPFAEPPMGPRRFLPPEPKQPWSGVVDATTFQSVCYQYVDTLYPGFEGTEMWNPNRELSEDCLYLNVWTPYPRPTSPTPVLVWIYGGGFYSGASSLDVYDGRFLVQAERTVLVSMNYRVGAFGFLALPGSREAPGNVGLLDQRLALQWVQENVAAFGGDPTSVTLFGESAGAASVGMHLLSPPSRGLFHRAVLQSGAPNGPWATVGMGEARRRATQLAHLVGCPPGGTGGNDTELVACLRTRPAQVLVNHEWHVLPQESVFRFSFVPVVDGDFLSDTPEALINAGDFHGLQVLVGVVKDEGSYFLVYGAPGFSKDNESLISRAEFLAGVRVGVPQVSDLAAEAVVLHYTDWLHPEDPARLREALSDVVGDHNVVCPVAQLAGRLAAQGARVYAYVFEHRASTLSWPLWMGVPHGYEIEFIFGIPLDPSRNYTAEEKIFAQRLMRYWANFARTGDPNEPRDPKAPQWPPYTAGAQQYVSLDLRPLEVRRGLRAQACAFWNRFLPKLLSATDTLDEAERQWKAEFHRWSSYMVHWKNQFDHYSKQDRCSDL

Compound `CC1=C[C@@H]2Cc3nc4cc(F)ccc4c(N)c3[C@H](C1)C2` has a Fold IC50 of 15.
